For one test, the target named is T1, Human DNMT1 (Homo sapiens, UniProt P26358).
T1 construct: a-a 2-1632, with N-terminal GST tag; GST (N)
Description: DNMT1 enzymatic activity inhibition, radioisotope-based 3H-SAM filter binding assay. The conditions noted are these: 1 μM SAM, 25 nM DNMT1, 0.005 mg/ml Poly(dI-dC), 30° C. 1 hour, 10-dose. Format: biochemical. On the procedure:
The inhibition of the enzymatic activity of DNMT1 was tested using low volume radioisotope-based assay which uses tritium-labeled AdoMet (^3H-SAM) as a methyl donor. Inhibitors diluted in DMSO were added by using acoustic technology (Echo550, Labcyte Inc. Sunnyvale, Calif.) into enzyme/substrate mixture in nano-liter range. The reaction was initiated by the addition of ^3H-SAM, and incubated at 30° C. for 1 hour. Total final methylations on the substrate poly(dI-dC) were detected by a filter binding approach. Data analysis was performed using GraphPad Prism software (La Jolla, Calif.) for IC50 curve fits.

The next test has as its system MDA-MB-468. Description: Cancer cell growth inhibition, MDA-MB-468. The conditions noted are these: Homo sapiens; Breast, MDA-MB-468, cell viability, 72 h. Format: cell-based. On the procedure: (§1) Cell culture-based assays were used to evaluate the ability of compounds of the invention to inhibit cancer cell growth inhibition.
(§2) Cells were obtained from the American Type Culture Collection (ATCC) and European Collection of Cell Cultures (ECACC).
(§3) Cells were thawed in their appropriate media plus supplements (see table below). Cells were passaged at confluence by washing once in HBSS cation-free followed by a 3 minutes incubation with trypsin ([0.5 μg/ml]/EDTA [0.2 μg/ml]) (Gibco-BRL, 15400054) solution in HBSS at 37° C. (except non-adherent cell lines), and transferred to their appropriate media plus supplements. Prior to seeding at defined cell concentration, cells were recovered in medium, centrifuged and taken up in medium, and counted.
(§4) Cells were plated at 3000/5000/10000 cells/well in 100 μl media in tissue culture 96 well plates (Cultek). After 24 h, media was supplemented by 100 μl/well of diluted IPDNs at 100 μM.
(§5) The Hexosaminidase assay was used for the adherent cell lines, whereas the AlamarBlue® assay was used for the non-adherent cell lines.
(§6) Dose-response curves were generated by serial dilutions (1:1) of the compounds. […] Reagent blanks, containing media plus colorimetric reagent without cells were run on each plate. Blank values were subtracted from test values and were routinely 5-10% of uninhibited control values. Plates were incubated 72 h, and living cell number was determined by AlamarBlue® and Hexosaminidase test. The advantages of using those assays are that both can be done in the same microwell plate. AlamarBlue® assay: plates were incubated 72 h and living cell number was determined by AlamarBlue (Biosource DAL1100). After 4 h incubation at 37° C., relative fluorescent intensity, which correlates with the number of living cells, was read in a Cytofluor plate reader (Millipore) at 535/590 nm (Excitation/emission). The hexosaminidase activity was measured according to the following protocol: the media was removed and cells were washed once with PBS. […]

The next test deals with PC3. Description: Cancer cell growth inhibition, PC3. Format: cell-based. The conditions noted are these: Homo sapiens, PC-3; Prostate, PC3, cell viability, 72 h. On the procedure:
as §1, §2, §3, §4, §5
(§7) Dose-response curves were generated by serial dilutions (1:1) of the compounds. […] Reagent blanks, containing media plus colorimetric reagent without cells were run on each plate. Blank values were subtracted from test values and were routinely 5-10% of uninhibited control values. Plates were incubated 72 h, and living cell number was determined by AlamarBlue® and Hexosaminidase test. The advantages of using those assays are that both can be done in the same microwell plate. AlamarBlue® assay: plates were incubated 72 h and living cell number was determined by AlamarBlue (Biosource DAL1100). After 4 h incubation at 37° C., relative fluorescent intensity, which correlates with the number of living cells, was read in a Cytofluor plate reader (Millipore) at 535/590 nm (Excitation/emission). The hexosaminidase activity was measured according to the following protocol: the media was removed and cells were washed once with PBS.
(§8) Data analysis was done by calculating the percentage of cell viability normalized in front of negative control values, which were considered as a 100%. The curve was adjusted using a sigmoidal dose-response (variable slope) equation and EC50 values were obtained from the equation
(§9) where, X is the logarithm of concentration. Y is the response. Bottom is the Y value at the bottom plateau Top is the Y value at the top plateau LogEC50 is the X value when the response is halfway between Bottom and Top. With different kinds of variables, this variable is sometimes called ED50 (effective dose, 50%), or IC50 (inhibitory concentration, 50%, used when the curve goes downhill).

The test system of another test is LnCaP. The test is described as follows: Cancer cell growth inhibition, LnCaP. Format: cell-based. The conditions noted are these: Homo sapiens, Prostate, cell viability, 72 h. On the procedure: as §1, §2, §3, §4, §5, §7, §8, §9
A further test relates to HCT-116. The test is described as follows: Cancer cell growth inhibition, HCT-116. Format: cell-based. Conditions: Homo sapiens; Colorectal, HCT-116, cell viability, 72 h. On the procedure:
as §1, §2, §3, §4, §5, §7, §8, §9

For another test, the system named is HT-29. Description: Cancer cell growth inhibition, HT-29. Format: cell-based. Conditions: Homo sapiens; Colorectal, HT-29, cell viability, 72 h. On the procedure: as §1, §2, §3, §4, §5, §6
The next test deals with A-549. The test is described as follows: Cancer cell growth inhibition, A-549. Format: cell-based. The conditions noted are these: Homo sapiens, A549; Lung, A-549, cell viability, 72 h. On the procedure:
as §1, §2, §3, §4, §5, §7, §8, §9

Another test deals with NCI-H358. Description: Cancer cell growth inhibition, NCI-H358. Conditions: Homo sapiens; Lung, NCI-H358, cell viability, 72 h. Format: cell-based. On the procedure: as §1, §2, §3, §4, §5, §7, §8, §9
For another test, the system named is Panc-1. The test is described as follows: Cancer cell growth inhibition, Panc-1. Format: cell-based. The conditions noted are these: Homo sapiens; Pancreatic, Panc-1, cell viability, 72 h. On the procedure:
as §1, §2, §3, §4, §5, §7, §8, §9

Another test concerns MDA-MB-435. The test is described as follows: Cancer cell growth inhibition, MDA-MB-435. Format: cell-based. Conditions: Homo sapiens; Melanoma, MDA-MB-435, cell viability, 72 h. On the procedure:
as §1, §2, §3, §4, §5, §7, §8, §9

For another test, the system named is 143B. Description: Cancer cell growth inhibition, 143B. Format: cell-based. The conditions noted are these: Homo sapiens, Osteosarcoma, cell viability, 72 h. The method, then:
as §1, §2, §3, §4, §5, §7, §8, §9

The test system of a further test is Daoy. The test is described as follows: Cancer cell growth inhibition, Daoy. Format: cell-based. The conditions noted are these: Homo sapiens, Brain, cell viability, 72 h. On the procedure:
as §1, §2, §3, §4, §5, §7, §8, §9

For another test, the system named is U-87MG. Description: Cancer cell growth inhibition, U-87MG. Format: cell-based. The conditions noted are these: Homo sapiens, Brain, cell viability, 72 h. The method, then:
as §1, §2, §3, §4, §5, §7, §8, §9

The test system of the next test is A-431. Description: Cancer cell growth inhibition, A-431. The conditions noted are these: Homo sapiens; Epidermoid, A-431, cell viability, 72 h. Format: cell-based. The method, then:
as §1, §2, §3, §4, §5, §7, §8, §9

The next test relates to CCFR-CEM. Description: Cancer cell growth inhibition, CCFR-CEM. Format: cell-based. Conditions: Hematologic, cell viability, 72 h. On the procedure: as §1, §2, §3, §4, §5, §7, §8, §9
Another test has as its system Jurkat. The test is described as follows: Cancer cell growth inhibition, Jurkat. Format: cell-based. The conditions noted are these: Homo sapiens, Hematologic, cell viability, 72 h. The method, then: as §1, §2, §3, §4, §5, §7, §8, §9
Another test has as its system RAMOS. The test is described as follows: Cancer cell growth inhibition, RAMOS. Format: cell-based. Conditions: Homo sapiens, Hematologic, cell viability, 72 h. The method, then: as §1, §2, §3, §4, §5, §7, §8, §9
Another test concerns MCF-7. Description: Cancer cell growth inhibition, MCF-7. Format: cell-based. Conditions: Homo sapiens, MCF7; Breast, MCF-7, cell viability, 72 h. On the procedure: as §1, §2, §3, §4, §5, §7, §8, §9
In another test the test system is SK-BR-3. The test is described as follows: Cancer cell growth inhibition, SK-BR-3. Format: cell-based. The conditions noted are these: Homo sapiens; Breast, SK-BR-3, cell viability, 72 h. On the procedure: as §1, §2, §3, §4, §5, §6
The test system of a further test is NCI-H1975. Description: Cancer cell growth inhibition, NCI-H1975. Format: cell-based. The conditions noted are these: Homo sapiens; Lung, NCI-H1975, cell viability, 72 h. On the procedure:
as §1, §2, §3, §4, §5, §7, §8, §9

The next test relates to HT-1080. Description: Cancer cell growth inhibition, HT-1080. Format: cell-based. The conditions noted are these: Homo sapiens; HT-1080, cell viability, 72 h. The method, then: as §1, §2, §3, §4, §5, §7, §8, §9
A further test has as its system MiaPaCa-2. The test is described as follows: Cancer cell growth inhibition, MiaPaCa-2. Format: cell-based. The conditions noted are these: Homo sapiens, MIA PaCa-2; Pancreatic, MiaPaCa-2, cell viability, 72 h. On the procedure: as §1, §2, §3, §4, §5, §7, §8, §9
For the next test, the system named is BxPC3. Description: Cancer cell growth inhibition, BxPC3. Format: cell-based. Conditions: Homo sapiens, BXPC-3; Pancreatic, BxPC3, cell viability, 72 h. On the procedure: as §1, §2, §3, §4, §5, §6
In another test the test system is U-373MG. The test is described as follows: Cancer cell growth inhibition, U-373MG. Format: cell-based. Conditions: Homo sapiens, U373 MG, Brain, cell viability, 72 h. On the procedure: as §1, §2, §3, §4, §5, §6
For a further test, the system named is HeLa. Description: Cancer cell growth inhibition, HeLa. Conditions: Homo sapiens, Cervical, cell viability, 72 h. Format: cell-based. On the procedure:
as §1, §2, §3, §4, §5, §6

T1 sequence (P26358 2-1632 isoform P26358-2): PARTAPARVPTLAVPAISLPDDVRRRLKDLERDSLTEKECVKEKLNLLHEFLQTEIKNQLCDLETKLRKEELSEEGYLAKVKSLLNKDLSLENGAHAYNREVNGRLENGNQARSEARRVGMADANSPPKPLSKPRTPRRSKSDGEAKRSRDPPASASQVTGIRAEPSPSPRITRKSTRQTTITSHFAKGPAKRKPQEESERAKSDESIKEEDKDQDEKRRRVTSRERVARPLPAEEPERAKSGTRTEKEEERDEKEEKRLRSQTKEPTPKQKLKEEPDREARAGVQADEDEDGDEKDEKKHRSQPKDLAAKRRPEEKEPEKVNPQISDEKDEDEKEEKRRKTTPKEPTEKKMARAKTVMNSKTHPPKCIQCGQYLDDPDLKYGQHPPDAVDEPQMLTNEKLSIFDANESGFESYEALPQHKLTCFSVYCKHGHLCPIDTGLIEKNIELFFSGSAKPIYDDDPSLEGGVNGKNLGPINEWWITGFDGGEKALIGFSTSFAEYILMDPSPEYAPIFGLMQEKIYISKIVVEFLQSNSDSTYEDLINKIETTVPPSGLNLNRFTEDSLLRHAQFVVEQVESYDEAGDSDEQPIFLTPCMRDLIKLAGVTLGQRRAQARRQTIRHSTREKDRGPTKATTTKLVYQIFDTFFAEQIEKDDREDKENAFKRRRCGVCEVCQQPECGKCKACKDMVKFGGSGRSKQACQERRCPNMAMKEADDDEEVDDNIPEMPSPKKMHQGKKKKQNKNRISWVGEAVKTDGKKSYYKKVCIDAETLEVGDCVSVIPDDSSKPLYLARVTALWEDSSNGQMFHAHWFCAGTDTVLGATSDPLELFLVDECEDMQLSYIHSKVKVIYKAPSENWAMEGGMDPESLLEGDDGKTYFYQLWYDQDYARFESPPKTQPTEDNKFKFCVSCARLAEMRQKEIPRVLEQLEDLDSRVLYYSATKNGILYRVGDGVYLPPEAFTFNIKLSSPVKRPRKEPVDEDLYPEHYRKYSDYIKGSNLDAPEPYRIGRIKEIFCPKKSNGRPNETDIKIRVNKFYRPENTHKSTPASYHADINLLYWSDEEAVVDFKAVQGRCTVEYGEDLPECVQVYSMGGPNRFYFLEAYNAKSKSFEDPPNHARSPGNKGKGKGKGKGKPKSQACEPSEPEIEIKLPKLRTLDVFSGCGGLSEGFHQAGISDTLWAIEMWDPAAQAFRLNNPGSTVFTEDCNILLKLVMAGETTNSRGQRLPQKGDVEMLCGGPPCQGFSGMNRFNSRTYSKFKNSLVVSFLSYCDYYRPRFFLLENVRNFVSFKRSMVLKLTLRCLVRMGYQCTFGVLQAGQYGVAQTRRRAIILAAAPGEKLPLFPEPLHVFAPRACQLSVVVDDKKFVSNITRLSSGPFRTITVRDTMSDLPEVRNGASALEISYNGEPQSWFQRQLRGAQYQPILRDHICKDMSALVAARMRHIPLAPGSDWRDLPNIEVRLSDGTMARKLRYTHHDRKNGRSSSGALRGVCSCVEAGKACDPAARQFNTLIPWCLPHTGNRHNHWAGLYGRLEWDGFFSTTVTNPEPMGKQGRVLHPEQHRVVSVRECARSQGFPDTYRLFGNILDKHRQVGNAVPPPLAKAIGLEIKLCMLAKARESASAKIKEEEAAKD

Take `COc1cc(OC)c2c(-c3ccc(O)c(O)c3)cn(CC(=O)c3ccc(O)c(O)c3)c2c1` [Example 8, 1-(3,4-dihydroxyphenyl)-2-[3-(3,4-dihydroxyphenyl)-4,6-dimethoxy-1H-indol-1-yl]ethanone]: at Human DNMT1, the IC50 (in general, the concentration at which inhibition is half-maximal) came to 6.85 µM. Moreover, the EC50 (usually the concentration at which the effect is half-maximal) in the test with MDA-MB-468 came out at 94 µM; in the test on PC3, 48 µM; with LnCaP, 27 µM; in the test with HCT-116 it was 96 µM; in the test on HT-29, 59 µM; in the test on A-549, 93 µM. For the same compound, the EC50 was determined as 50 µM in the test with NCI-H358; 55 µM with Panc-1; 23 µM with MDA-MB-435; 19 µM in the test with 143B; 50 µM in the test with Daoy; 22 µM in the test on U-87MG. Moreover, the EC50 in the test with A-431 is 59 µM; in the test with CCFR-CEM it was 34 µM; in the test on Jurkat, 56 µM; with RAMOS, 55 µM.

The compound `COc1ccc2c(-c3ccc(O)c(O)c3)cn(CC(=O)c3ccc(O)c(O)c3)c2c1` [Example 4, 1-(3,4-dihydroxyphenyl)-2-[3-(3,4-dihydroxyphenyl)-6-methoxy-1H-indol-1-yl]ethanone] registered an IC50 on Human DNMT1 of 13.8 µM. Moreover, the EC50 in the test on MCF-7 was found to be 30 µM; with SK-BR-3, 20 µM; in the test with LnCaP, 28 µM; in the test on HCT-116, 51 µM; in the test with A-549, 97 µM; in the test on NCI-H1975, 46 µM. Further, the half-maximal effective concentration (EC50) in the test with NCI-H358 is 11 µM; with HT-1080, 31 µM; in the test on MiaPaCa-2, 66 µM; in the test with Panc-1 it was 27 µM; in the test on BxPC3 it was 53 µM; in the test on MDA-MB-435, 14 µM. Also, the EC50 worked out at 47 µM in the test with Daoy; 21 µM in the test on U-373MG; 20 µM in the test on U-87MG; 36 µM with HeLa; 30 µM in the test with A-431; 45 µM in the test on CCFR-CEM. The EC50 was determined as 24 µM in the test on Jurkat and 51 µM in the test with RAMOS.

The record behind these values is patent US20150336889A1, “INDOLE DERIVATIVES, PHARMACEUTICAL COMPOSITIONS CONTAINING SUCH INDOLES AND THEIR USE AS DNA METHYLATION MODULATORS” (IKERCHEM, S.L., priority 2012, published 2015).
